Results on four compounds are retold here after patent US10047068B2, “Optical resolution method of lenalidomide” (Shiseido Company, Ltd, priority 2014, dated 2018).

The conditions of data set [1]: NPL 11; cited from earlier work.
Data set [2] is described as follows: Racemization half-life in human serum (37° C.). Conditions: for racemization half-life in serum, times longer than the corresponding TD enantiomer: human serum, 37° C. An excerpt: The analysis method of the invention is shown as scheme (b). The acid used to suspend the reaction while simultaneously precipitating and removing the protein was HClO4.
The conditions of data set [3]: Na-phosphate buffer pH 7.4, 37° C., average of 3 tests ± SD.
Data set [4] is described as follows: Dependence of racemization half-life on pH in aqueous buffers at room temperature. The format is physicochemical. The method, then:
In order to elucidate the racemization half-life of lenalidomide and its pH dependence, an experiment was conducted with the following scheme and HPLC conditions.
The enantiomeric excess rate (EE, [(S−R)/(S+R)×100], %) at each point is plotted in FIG. 7, and the log10 (EE) vs. time plot is shown in FIG. 8.
This linearity was used to calculate the time for EE=50 based on a straight line approximation (y=ax+b), to determine the racemization half-life. The stability of the pure enantiomer is very highly dependent on pH, the half-life being 10 times longer for every pH reduction of 1, and estimation of the half-life was no longer possible at pH 4. At pH 9, on the other hand, sudden racemization and decomposition were observed.

Data set [5] in a line: Stability of lenalidomide in different solvents. The format is physicochemical. Conditions: 0.5 mg/mL racemic mixture, room temperature or 50° C., 24 hours.

For `O=C1CCC(N2C(=O)c3ccccc3C2=O)C(=O)N1` (racemic) [thalidomide], the excretion half-life in data set [1] is 8.7 h.
As for `Nc1cccc2c1CN(C1CCC(=O)NC1=O)C2=O` (single isomer, unassigned) [(R*)-LL], in data set [2], the “racemization half-life in serum, times longer than the corresponding TD enantiomer” value turned out to be 3 times and the “racemization half-life in human serum” value was 1.82 ± 0.0333 h. Also, the “racemization half-life in aqueous buffer” value in data set [3] came out at 4.45 ± 0.0183 h.
As to `Nc1cccc2c1CN(C1CCC(=O)NC1=O)C2=O` (single isomer, unassigned) [(S*)-LL], in data set [2], the “racemization half-life in serum, times longer than the corresponding TD enantiomer” value is 6 times and the “racemization half-life in human serum” value was 2.18 ± 0.0817 h. Moreover, the “racemization on incubation in aqueous buffer” value in data set [4] (pH 6, room temperature) is “small amount of (R*)-LL was produced”. In addition, the “racemization on incubation in aqueous buffer” value in data set [4] (pH 7 and higher, room temperature) is on record as “racemization was significantly accelerated”. In addition, the “racemization half-life in aqueous buffer” value in data set [3] was found to be 4.53 ± 0.0217 h.
With `Nc1cccc2c1CN(C1CCC(=O)NC1=O)C2=O` (racemic) [lenalidomide, Lenalidomide], the “stability in solvent (enantiomer peak areas before and after incubation)” value in data set [5] (acetonitrile) is given as “no decomposition was observed”; in data set [5] (ethanol), “highly unstable”; in data set [5] (ethyl acetate) it was “no decomposition was observed”; in data set [5] (isopropanol), “stable”; in data set [5] (methanol), “highly unstable”. The “racemization and decomposition in aqueous buffer (peak areas)” value in data set [4] (pH 9 and 8, room temperature) was “racemization and decomposition of LL takes place”.
